In article PMC4632738, “New Peptide-Conjugated Chlorin-Type Photosensitizer Targeting Neuropilin-1 for Anti-Vascular Targeted Photodynamic Therapy” (International Journal of Molecular Sciences, 2015):
Entries after “also recorded” stand apart in the source; their conditions may differ. Where two headings read alike, the source gives them in different places. One block for each compound: values may come before it. Ends that are not written are not given here. TPC = not defined here; Ahx = NCCCCCC(=O)O

Legend:
[1] = Shake flask octanol/PBS pH 7.4 distribution coefficient; type: physicochemical; conditions: expressed as log, mean ± S.D.
Experimental: The distribution coefficient values at pH 7.4 from the shake flask method and the retention time from HPLC analysis of TPC and the conjugates are summarized in Table 2. The TPC-spacer-peptides were analyzed by HPLC (column Altech, Apollo C18 reverse-phase (5 μm; 250 mm × 4.6 mm)) on a Shimadzu LC-10ATvp, monitored by a UV/Visible detector at 214 and 415 nm on a SPD-10A UV-Visible detector. […] The log DpH7.4 value for TPC–Ahx–ATWLPPR obtained (2.61 ± 0.2) was also consistent with data published by Tirand et al., confirming the hydrophobic characteristic of TPC and the TPC–Ahx–ATWLPPR conjugate.
Hydrophilic and hydrophobic characteristics were also evaluated using the “shake flask” method to determine the solubility of the free TPC and the conjugates. […] The distribution coefficient, DpH7.4 was then expressed as log (mean ± S.D., n = 6).

[2] = Photophysical characterization (UV-Vis absorption, fluorescence and singlet oxygen quantum yields); type: physicochemical; conditions: ethanol, room temperature; for Molar Extinction Coefficient Soret ε415: 415 nm; for Molar Extinction Coefficient QIV ε516: 516 nm; for Molar Extinction Coefficient QIII ε543: 543 nm; for Molar Extinction Coefficient QII ε598: 598 nm; for Molar Extinction Coefficient QI ε650: 650 nm; for Fluorescence quantum yield Φf: ±0.02, reference TPP in toluene; for Singlet oxygen quantum yield Φ∆: ±0.05, reference rose Bengal in ethanol
Description: Table 3 summarizes the molar extinction coefficient values of the six conjugates as well as their fluorescence and singlet oxygen quantum yield values.
The photophysical properties of TPC and the TPC–peptide conjugates were characterized using three different techniques; UV/visible absorption (Perkin Elmer Lambda 2 UV-Vis spectrophotometer, Courtaboeuf, France), fluorescence emission (SPEX Fluorolog-3 spectrofluorometer, Jobin Yvon, Longjumeau, Paris, France) and singlet oxygen emission. For UV-Vis measurements, the samples of TPC and the six conjugates were diluted in ethanol and their spectra were determined in the range of 300 to 800 nm. For fluorescence emission spectra, samples with an absorption at 415 nm equal to 0.200 (±0.02) were prepared. Solvent refractive index and absorption efficiencies of fluorescence quantum yields (Φf) were calculated based on a TPP solution in toluene as a fluorescence standard reference (Φf(ref) = 0.11) as described by Equation (2): (2) ϕf=ϕf(ref)×I/Iref×Aref/A×(n/nref)^2 where A and Aref correspond to the absorbance at 415 nm of the sample and TPP, respectively, while I and Iref are the areas under the fluorescence spectra between 600 and 750 nm of the sample and TPP, respectively. n and nref are the refractive indices of solvents used for the sample and TPP, respectively (n/nethanol = 1.361, nref/ntoluene = 1.496).
Singlet oxygen emission spectra were recorded on SPEX 1680 with […] double monochromator with a Xenon arc lamp as excitation source. Singlet oxygen generation was specifically detected at 1270 nm and the emission was monitored by using liquid nitrogen-cooled germanium-detector (EO-817P, North Coast Scientific, North Ridgeville, OH, USA). A solution of rose Bengal in ethanol was used as the reference, ΦΔ(ref) = 0.68 [25]. The singlet oxygen quantum yield was then determined using Equation (3): (3) ϕΔ=ϕΔ(ref)×I/Iref×Aref/A where A and Aref are the UV visible absorbance at 415 nm of the sample and rose Bengal (the reference), respectively, while I and Iref are the peak intensities of luminescence at 1270 nm of the sample and rose Bengal, respectively.

[3] = biological target: T1, recombinant NRP-1 protein (Homo sapiens, UniProt O14786); conditions: cited from earlier work
[4] = system: HUVEC; set-up: method as in PMID 17283031; conditions: cited from earlier work; for Light doses 50 values: red light
[5] = biological target: T1, recombinant NRP-1 protein; assay: Competitive binding ELISA, displacement of biotinylated VEGF165
Experimental: The molecular affinity of the different TPC–peptide conjugates for recombinant NRP-1 protein was estimated through a competitive binding test using biotinylated VEGF165 to NRP-1 receptor recognition recombinant. As biotinylated VEGF165 binding to this receptor is heparin dependent, the competitive binding tests were performed in the presence of heparin (2 µg/mL).
The conjugates were first dissolved in DMSO and subsequently diluted in methanol. Tween-20 was added in the blocking buffer to assist in the solubilization of the conjugate. The samples were prepared in ten different concentrations ranging from 3 to 960 µM.

[6] = cited from earlier work
[7] = In vivo plasma concentration by HPLC after intravenous injection; conditions: mice, 2.8 mg/kg i.v., sampled at 1, 4 and 24 h
Experimental: The in vivo stability study was carried out with only two of the novel conjugates synthesized; TPC–PEG18–DKPPR and TPC–PEG18–TKPRR were selected because of to their interesting hydrophilicity properties. We selected TPC–Ahx–ATWLPPR conjugate as a reference based on our previous studies. Blood and tissue samples were weighed and kept at −80 °C in polypropylene tubes, until further processing. Extraction of the conjugates from the tissues required first a solubilization step, using TEM buffer (10 mM Tris, 1.66 mM EDTA, 5 mM molybdate, pH 7.4) and homogenization. […] Conjugates levels in the plasma and tissues were determined as a percentage of the injected dose per gram […] (% injected dose/g of tissue) or per milliliter plasma. […]
The in vivo stability analyses were performed by HPLC equipped with programmable software GOLD version 1.6 (Beckman Coulter, Fullerton, CA, USA), an auto sampler injector (507e, System Gold, Beckman Coulter) and a fluorescence detector (RF-10A XL, Shimadzu, Kyoto, Japan). […] Fluorescence excitation and emission wavelengths were detected at 416 and 652 nm, respectively. […] The conjugate levels in plasma and organs were determined from the peak areas and normalized based on standard calibration curves constructed earlier. The data were calculated as the mean value of three mice.

[8] = In vivo stability in plasma by MALDI-TOF MS; conditions: 24 h after administration, mice
Experimental: Female athymic Swiss nude/nude mice (7–9 weeks, weight range 20–25 g) were obtained from Harlan (Gannat, France). The in vivo study we conducted was based on the results obtained from the ELISA test conducted earlier. The conjugates of TPC–Ahx–ATWLPPR, TPC–PEG18–DKPPR and TPC–PEG18–TKPRR (2.8 mg/kg) were injected intravenously via the tail vein in ethanol–PEG 400–water (2:3:5, v/v/v). The mice were kept in the dark after the injection. After 1, 4 and 24 h, blood samples were collected and plasma was separated from the blood. The mice were sacrificed and tissues were carefully excised. All samples were kept in the dark at −80 °C in polypropylene tubes until further analysis.
MALDI-TOF MS analyses were carried out on a Bruker Reflex IV time-of-flight mass spectrometer (Bruker-Daltonic, Bremen, Germany) equipped with the SCOUT 384 probe ion source fitted with a nitrogen pulsed laser (337 nm, VSD-337ND model, Laser Science Inc., Boston, MA, USA). The laser output energy was 400 μJ/pulse. Positives ions were accelerated with a 200 ns extraction delay. The reflector voltage was 23 kV. […]
MALDI-TOF MS analyses were performed using 2,5-dihydroxybenzoic acid (DHB) (Sigma-Aldrich, Saint-Quentin-Fallavier, France) as the matrix. […] All samples were analyzed in duplicate.

[9] = set-up: method as in PMID 17283031; conditions: cited from earlier work

T1 sequence (O14786 22-923): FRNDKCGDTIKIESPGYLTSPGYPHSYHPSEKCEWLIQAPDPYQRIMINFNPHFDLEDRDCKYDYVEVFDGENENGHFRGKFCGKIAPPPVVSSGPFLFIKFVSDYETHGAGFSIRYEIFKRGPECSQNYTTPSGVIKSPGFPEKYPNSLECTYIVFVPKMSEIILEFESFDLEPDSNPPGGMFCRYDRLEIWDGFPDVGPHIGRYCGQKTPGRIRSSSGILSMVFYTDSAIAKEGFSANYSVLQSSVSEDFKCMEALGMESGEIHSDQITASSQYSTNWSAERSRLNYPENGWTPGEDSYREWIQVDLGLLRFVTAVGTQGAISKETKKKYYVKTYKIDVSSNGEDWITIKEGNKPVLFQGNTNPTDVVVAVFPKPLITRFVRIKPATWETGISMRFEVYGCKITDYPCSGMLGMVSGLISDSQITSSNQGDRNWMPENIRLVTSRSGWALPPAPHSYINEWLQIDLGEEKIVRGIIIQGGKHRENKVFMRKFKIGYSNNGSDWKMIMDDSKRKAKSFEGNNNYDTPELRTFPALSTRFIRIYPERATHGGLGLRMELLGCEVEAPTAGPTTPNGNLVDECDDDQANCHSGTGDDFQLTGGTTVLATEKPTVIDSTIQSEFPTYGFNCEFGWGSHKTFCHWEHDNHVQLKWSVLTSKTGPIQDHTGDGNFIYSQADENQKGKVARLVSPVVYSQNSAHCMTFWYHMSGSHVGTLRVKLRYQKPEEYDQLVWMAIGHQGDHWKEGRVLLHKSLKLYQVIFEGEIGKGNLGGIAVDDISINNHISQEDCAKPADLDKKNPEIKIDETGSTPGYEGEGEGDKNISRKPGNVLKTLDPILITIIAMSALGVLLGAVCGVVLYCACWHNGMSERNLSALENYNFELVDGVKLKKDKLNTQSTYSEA

logD ([1]; n = 6, read-out: Shake Flask Method Distribution Coefficient, D (log D pH7.4)): 2.61 ± 0.2 | Molar Extinction Coefficient Soret ε415 [2]: 76000 L·M^−1·cm^−1 | Molar Extinction Coefficient QIV ε516 [2]: 8000 L·M^−1·cm^−1 | Molar Extinction Coefficient QIII ε543 [2]: 5000 L·M^−1·cm^−1 | Molar Extinction Coefficient QII ε598 [2]: 4000 L·M^−1·cm^−1 | Molar Extinction Coefficient QI ε650 [2]: 12000 L·M^−1·cm^−1 | Fluorescence quantum yield Φf [2]: 0.18 | Singlet oxygen quantum yield Φ∆ [2]: 0.47
Compound: O=C(O)c1ccc(-c2c3nc(c(-c4ccccc4)c4ccc([nH]4)c(-c4ccccc4)c4nc(c(-c5ccccc5)c5ccc2[nH]5)CC4)C=C3)cc1 [TPC, 5-(4-carboxyphenyl)-10,15,20-triphenyl chlorin]
Displacement of the binding of VEGF165 [3]: failed to do so | Light doses 50 values [4]: 4.9 ± 0.64 J/cm^2 | Displacement of biotinylated VEGF165 binding onto NRP-1 protein ([5]; heparin 2 µg/mL): failed to displace; also recorded: did not show any significant binding at all

Compound: C1=Cc2nc1c(-c1ccccc1)c1ccc([nH]1)c(-c1ccccc1)c1nc(c(-c3ccccc3)c3ccc([nH]3)c2-c2ccccc2)C=C1 [TPP]
Fluorescence quantum yield of standard reference Φf(ref) ([6]; in toluene): 0.11

Compound: O=C([O-])c1c(Cl)c(Cl)c(Cl)c(Cl)c1-c1c2cc(I)c(=O)c(I)c-2oc2c(I)c([O-])c(I)cc12.[Na+].[Na+] [rose Bengal]
Singlet oxygen quantum yield of standard reference ΦΔ(ref) ([6]; in ethanol): 0.68

IC50 [5]: 1000 nM
Compound: DKPPR [DKPPR]

Compound: TKPPR
Displacement of the binding of VEGF165 to recombinant NRP-1 (ELISA) ([3]; free peptides): able to displace the binding of VEGF165

IC50 [5]: 1000 nM
Compound: TKPRR [TKPRR]

Compound: TPC–Ahx–ATWLPPR: TPC coupled via 6-aminohexanoic acid spacer to peptide ATWLPPR; group's earlier NRP-1 targeting conjugate ({TPC-Ahx}-ATWLPPR; reading uncertain; also: printed as TPC–Ahx–ATWLPPR)
Shake Flask Method Distribution Coefficient, D (log D pH7.4) ([1]; n = 6): 2.61 ± 0.2 | Molar Extinction Coefficient Soret ε415 [2]: 74000 L·M^−1·cm^−1 | Molar Extinction Coefficient QIV ε516 [2]: 6800 L·M^−1·cm^−1 | Molar Extinction Coefficient QIII ε543 [2]: 4900 L·M^−1·cm^−1 | Molar Extinction Coefficient QII ε598 [2]: 2600 L·M^−1·cm^−1 | Molar Extinction Coefficient QI ε650 [2]: 12000 L·M^−1·cm^−1 | Fluorescence quantum yield Φf [2]: 0.18 | Singlet oxygen quantum yield Φ∆ [2]: 0.39 | Time up to which conjugate is found in plasma after intravenous injection [7]: up to 24 h | MS signal of peak m/z 616 (attributed to the TPC moiety) in plasma [8]: not detected | Displacement of the binding of VEGF165 [3]: managed to displace the binding of VEGF165 | IC50 ([3]; read-out: IC50, displacement of VEGF165 binding to NRP-1): 171000 nM | Time for which conjugate could be detected in the plasma [9]: ≥ 48 h | Enhancement of photodynamic activity versus TPC [4]: 10.4 fold | Light doses 50 values [4]: 0.47 ± 0.23 J/cm^2
